Literature values in US20050176827A1, “Compositions and methods for glycogen synthesis” (priority 2002, published 2005).

Test system: pancreatic beta cell
Conditions: micromolar concentrations; direct effect on pancreatic beta cell, glucose dependent

Compound: CC(O)C(C)C(N)C(=O)O (stereo not shown) [4-hydroxyisoleucine]
- effect on glucose-induced insulin secretion: stimulate glucose-induced insulin secretion
